Measured values taken from patent US20040229791A1, “Compositions and methods of modulating TGF-beta activity by fatty acids” (priority 2002, published 2004).

Molecular target: T1, 125I-TGF-β isoform-α2M* complexes (Homo sapiens, UniProt P01023)
T1 construct: was purified from pooled citrate-treate human plasma; from tissue; host or cells: pooled citrate-treated human plasma
T1 sequence (P01023 24-1474): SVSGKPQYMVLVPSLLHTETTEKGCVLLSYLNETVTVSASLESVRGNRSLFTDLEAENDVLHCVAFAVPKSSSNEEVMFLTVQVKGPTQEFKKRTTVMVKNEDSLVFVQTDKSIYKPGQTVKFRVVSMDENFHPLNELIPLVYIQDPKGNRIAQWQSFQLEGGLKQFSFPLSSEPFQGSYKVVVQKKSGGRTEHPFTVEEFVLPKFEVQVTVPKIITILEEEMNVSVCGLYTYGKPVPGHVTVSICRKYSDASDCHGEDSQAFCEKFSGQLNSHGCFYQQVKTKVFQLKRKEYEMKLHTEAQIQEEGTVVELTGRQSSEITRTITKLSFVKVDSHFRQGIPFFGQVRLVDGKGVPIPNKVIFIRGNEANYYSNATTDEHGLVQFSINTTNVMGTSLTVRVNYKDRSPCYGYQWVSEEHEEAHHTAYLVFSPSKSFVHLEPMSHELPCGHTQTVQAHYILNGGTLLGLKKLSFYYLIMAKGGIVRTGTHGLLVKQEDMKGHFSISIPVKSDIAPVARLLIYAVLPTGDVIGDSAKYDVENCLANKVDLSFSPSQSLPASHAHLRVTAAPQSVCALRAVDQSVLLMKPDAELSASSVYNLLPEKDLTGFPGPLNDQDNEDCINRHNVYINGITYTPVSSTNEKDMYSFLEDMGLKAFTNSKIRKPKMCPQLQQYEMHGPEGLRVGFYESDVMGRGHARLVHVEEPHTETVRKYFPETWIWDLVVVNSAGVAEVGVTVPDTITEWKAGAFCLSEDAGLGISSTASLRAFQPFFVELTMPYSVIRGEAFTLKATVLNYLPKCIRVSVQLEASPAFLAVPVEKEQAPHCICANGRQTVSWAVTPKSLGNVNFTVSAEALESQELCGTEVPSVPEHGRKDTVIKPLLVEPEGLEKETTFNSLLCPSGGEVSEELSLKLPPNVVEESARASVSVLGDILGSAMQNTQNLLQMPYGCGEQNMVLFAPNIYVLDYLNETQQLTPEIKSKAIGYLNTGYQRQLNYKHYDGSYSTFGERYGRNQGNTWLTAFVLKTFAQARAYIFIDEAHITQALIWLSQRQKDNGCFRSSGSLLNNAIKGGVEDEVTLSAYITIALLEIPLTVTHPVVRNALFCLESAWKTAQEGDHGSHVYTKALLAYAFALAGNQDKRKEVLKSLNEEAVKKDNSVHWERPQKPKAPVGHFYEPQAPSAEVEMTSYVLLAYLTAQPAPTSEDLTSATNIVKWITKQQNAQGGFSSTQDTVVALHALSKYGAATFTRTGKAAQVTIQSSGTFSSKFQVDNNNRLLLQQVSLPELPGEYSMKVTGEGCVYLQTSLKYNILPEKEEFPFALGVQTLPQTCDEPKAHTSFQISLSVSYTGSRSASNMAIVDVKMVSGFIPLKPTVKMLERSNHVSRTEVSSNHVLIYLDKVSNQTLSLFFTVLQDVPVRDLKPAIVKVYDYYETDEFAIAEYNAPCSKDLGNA
Assay: Complex formation of 125I-TGF-β isoforms and α2M* by DSS cross-linking and 7.5% SDS-PAGE
Format: binding
Conditions: DSS cross-linking, effective concentrations comparable to non-denaturing PAGE
Description: TGF- ? isoforms bind to α2M* with different affinities: TGF ? β2>TGF ? β1 ( active sites of TGF ? β1 and TGF- ? 2 responsible for high-affinity binding to ? 2M* are disti from the low-affinity ? 2M* binding site in TGF- ? 3 (19). To determine if fatty acids differentially affect the binding of TGF- ? isoforms to ? 2M*, the effects of various concentrations of arachidonic acid and myristic acid on complex formation of ^125I-labeled TGF ? β isoforms and ? 2M were determined*. […] It inhibited 30% of the complex form . α2M* and TGF ? β2 and TGF ? β3 at 100 and >250 μM, respectively. Arachidon polyunsaturated fatty acid, was a stronger inhibitor of complex formation of ? 2M* and TGF-.β2/TGF ? β3. It inhibited 50% of the complex formation of ? 2M* and ^125I-TGF- ? 2 at 50 μM (FIG. 3A). The observation that myristic acid and arachidonic acid inhibited complex formation of ^125I-TGF- ? […] 2M* complexes in the reaction mixtures were then analyzed by 7.5% SDS-PAGE and autoradiography.
Complex formation of ^125I-TGF-β and ? […] After 30 min at room temperature, the complex formation of ^125I-TGF- ? and. α2M* was determined by 5% non-denaturing polyacrylamide gel electrophoresis (PAGE) or by 7.5% SDS-PAGE following cross-linking by 0.6 mM DSS. After electrophoresis, the gel was stained with Coomassie blue and analyzed by autoradiography. […] 2M* was quantified using a PhosphoImager (Fuji).

SMILES: CCCCC/C=C\C/C=C\C/C=C\C/C=C\CCCC(=O)O [arachidonic acid]
- blocking of cross-linked 125I-TGF-β isoform-α2M* complex formation: blocked complex formation
